Measured values: patent US20220380347A1, “INHIBITORS OF CYSTEINE PROTEASES AND METHODS OF USE THEREOF” (Pardes Biosciences, Inc., priority 2020, published 2022)
Where two headings read alike, the source gives them in different places.

Columns and labels:
HCov OC43 = test: HCoV OC43 cytopathic effect (CPE) assay, CellTiter Glo; type: cell-based, human coronavirus (HCov) OC43
229E Mpro = 229E Mpro (Human coronavirus 229E, UniProt P0C6X1); test: 229E Mpro enzymatic assay (standard methods, SARS-CoV2 Mpro assay given as exemplary); type: biochemical, human coronavirus (HCov) 229E
229E Mpro, sequence (P0C6X1 2966-3267): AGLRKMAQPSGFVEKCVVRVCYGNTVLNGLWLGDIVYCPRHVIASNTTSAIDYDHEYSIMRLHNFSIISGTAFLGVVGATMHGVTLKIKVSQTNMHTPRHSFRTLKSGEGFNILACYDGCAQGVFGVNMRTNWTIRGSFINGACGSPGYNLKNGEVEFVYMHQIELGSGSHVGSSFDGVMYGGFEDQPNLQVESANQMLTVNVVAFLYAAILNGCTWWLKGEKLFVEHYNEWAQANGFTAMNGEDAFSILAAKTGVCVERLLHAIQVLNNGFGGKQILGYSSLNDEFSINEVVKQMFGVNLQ
Summary of the method: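 Run by standard methods, with the SARS-CoV-2 Mpro protocol given as the model: E. coli-expressed C-His6 protease at 25 nM and substrate at 25 μM (Km 13.5 μM). Buffer pH 7.3 with 5 mM TCEP and 0.1% BSA; % inhibition versus controls fitted to variable-slope log(inhibitor)-response for IC50.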

[1] = target: COVID-19 (nCoV-2019, SARS-CoV2) Mpro (Severe acute respiratory syndrome coronavirus 2, UniProt P0DTD1); test: COVID-19 (nCoV-2019, SARS-CoV2) Mpro enzymatic assay; type: biochemical; conditions: 25 nM Mpro, 25 μM substrate; read-out: COVID-19 Mpro IC50
[2] = Betacoronavirus 1, OC43, read-out: OC43 IC50 (uM) MEDIAN, median
[3] = read-out: OC43 IC50 (uM) MEDIAN, median

Structure (SMILES) | IC50 (HCov OC43; [2]) | EC50 (229E Mpro; 229E Mpro EC50) | IC50 [1] | IC50 (HCov OC43; [3]) | EC50 (229E Mpro; read-out: 229E Mpro EC50)
CC(C)(C)c1ccc(N(C(=O)[C@H]2[C@H](F)CCN2C#N)C(C(=O)NC2CCC(F)(F)CC2)c2cncc(F)c2)cc1 (single isomer, unassigned) [1212 Isomer 1] | < 2 µM | < 2 µM | < 2 µM | – | –
CC(C)(C)c1ccc(N(C(=O)[C@H]2[C@H](F)CCN2C#N)C(C(=O)NC2CCC(F)(F)CC2)c2cncc(F)c2)cc1 (single isomer, unassigned) [1212 Isomer 2] | – | – | < 2 µM | < 2 µM | < 2 µM
CO[C@@H]1C[C@H](C(=O)N(c2ccc(C(C)(C)C)cc2)C(C)(C(=O)NC2CCCCC2)c2cccnc2)N(C#N)C1 (single isomer, unassigned) [1230 Isomer 1] | – | 2 to 10 µM | > 30 µM | > 30 µM | –
CO[C@@H]1C[C@H](C(=O)N(c2ccc(C(C)(C)C)cc2)C(C)(C(=O)NC2CCCCC2)c2cccnc2)N(C#N)C1 (single isomer, unassigned) [1230 Isomer 2] | – | < 2 µM | < 2 µM | < 2 µM | –
CO[C@@H]1C[C@H](C(=O)N(c2ccc(C(C)(C)C)cc2)C(C)(C(=O)NC2CCC(F)(F)CC2)c2cccnc2)N(C#N)C1 (single isomer, unassigned) [1232 Isomer 1] | 2 to 10 µM | 2 to 10 µM | 2 to 10 µM | – | –
CO[C@@H]1C[C@H](C(=O)N(c2ccc(C(C)(C)C)cc2)C(C)(C(=O)NC2CCC(F)(F)CC2)c2cccnc2)N(C#N)C1 (single isomer, unassigned) [1232 Isomer 2] | – | < 2 µM | < 2 µM | < 2 µM | –
CO[C@@H]1C[C@H](C(=O)N(c2ccc(S(F)(F)(F)(F)F)cc2)C(C)(C(=O)NC2CCC(F)(F)CC2)c2cccnc2)N(C#N)C1 (single isomer, unassigned) [1259 Isomer 1] | 2 to 10 µM | < 2 µM | 2 to 10 µM | – | –
CO[C@@H]1C[C@H](C(=O)N(c2ccc(S(F)(F)(F)(F)F)cc2)C(C(=O)NC2CCC(F)(F)CC2)c2cncc(F)c2)N(C#N)C1 (single isomer, unassigned) [1265 Isomer 1] | < 2 µM | < 2 µM | < 2 µM | – | –
CO[C@@H]1C[C@H](C(=O)N(c2ccc(S(F)(F)(F)(F)F)cc2)C(C(=O)NC2CCC(F)(F)CC2)c2cncc(F)c2)N(C#N)C1 (single isomer, unassigned) [1265 Isomer 2] | – | – | < 2 µM | < 2 µM | < 2 µM
N#CN1C[C@@H](OCc2ccccc2)C[C@@H]1C(=O)N(c1ccc(S(F)(F)(F)(F)F)cc1)C(C(=O)NC1CCC(F)(F)CC1)c1cncc(F)c1 (single isomer, unassigned) [1280 Isomer 1] | < 2 µM | < 2 µM | < 2 µM | – | –
N#CN1C[C@@H](OCc2ccccc2)C[C@@H]1C(=O)N(c1ccc(S(F)(F)(F)(F)F)cc1)C(C(=O)NC1CCC(F)(F)CC1)c1cncc(F)c1 (single isomer, unassigned) [1280 Isomer 2] | – | 2 to 10 µM | > 30 µM | 2 to 10 µM | –
CO[C@@H]1C[C@H](C(=O)N(c2ccc(S(F)(F)(F)(F)F)cc2F)C(C(=O)NC2CCC(F)(F)CC2)c2cccnc2)N(C#N)C1 (single isomer, unassigned) [1288 Isomer 1] | < 2 µM | < 2 µM | < 2 µM | – | –
CO[C@@H]1C[C@H](C(=O)N(c2ccc(S(F)(F)(F)(F)F)cc2F)C(C(=O)NC2CCC(F)(F)CC2)c2cccnc2)N(C#N)C1 (single isomer, unassigned) [1288 Isomer 2] | – | – | < 2 µM | 2 to 10 µM | < 2 µM
N#CN1C[C@H](O)C[C@@H]1C(=O)N(c1ccc(S(F)(F)(F)(F)F)cc1F)C(C(=O)NC1CCC(F)(F)CC1)c1cccnc1 (single isomer, unassigned) [1288a Isomer 1] | < 2 µM | < 2 µM | < 2 µM | – | –
N#CN1C[C@H](O)C[C@@H]1C(=O)N(c1ccc(S(F)(F)(F)(F)F)cc1F)C(C(=O)NC1CCC(F)(F)CC1)c1cccnc1 (single isomer, unassigned) [1288a Isomer 2] | – | – | 2 to 10 µM | 2 to 10 µM | < 2 µM
N#CC1(C(=O)N(c2ccc(S(F)(F)(F)(F)F)cc2)C(C(=O)NC2CCC(F)(F)CC2)c2cncc(F)c2)CC1 (single isomer, unassigned) [1289 Isomer 1, 1-cyano-N-[2-[(4,4-difluorocyclohexyl)amino]-1-(5-fluoro-3-pyridyl)-2-oxo-ethyl]-N-[4-(pentafluoro-λ^6-sulfanyl)phenyl]cyclopropanecarboxamide] | > 30 µM | > 30 µM | > 30 µM | – | –

Structure (SMILES) | IC50 (HCov OC43; [2]) | EC50 (229E Mpro; 229E Mpro EC50) | IC50 [1] | IC50 (HCov OC43; [3]) | EC50 (229E Mpro; read-out: 229E Mpro EC50)
N#CC1(C(=O)N(c2ccc(S(F)(F)(F)(F)F)cc2)C(C(=O)NC2CCC(F)(F)CC2)c2cncc(F)c2)CC1 (single isomer, unassigned) [1289 Isomer 2, 1-cyano-N-[2-[(4,4-difluorocyclohexyl)amino]-1-(5-fluoro-3-pyridyl)-2-oxo-ethyl]-N-[4-(pentafluoro-λ^6-sulfanyl)phenyl]cyclopropanecarboxamide] | – | – | > 30 µM | > 30 µM | > 30 µM
CO[C@@H]1C[C@H](C(=O)N(c2ccc(S(F)(F)(F)(F)F)cc2)C(C(=O)NCC2(C)CCCN(C(=O)OC(C)(C)C)C2)c2cccnc2)N(C#N)C1 (single isomer, unassigned) [1290 Isomer 1] | 2 to 10 µM | < 2 µM | < 2 µM | – | –
CO[C@@H]1C[C@H](C(=O)N(c2ccc(S(F)(F)(F)(F)F)cc2)C(C(=O)NCC2(C)CCCN(C(=O)OC(C)(C)C)C2)c2cccnc2)N(C#N)C1 (single isomer, unassigned) [1290 Isomer 2] | – | 2 to 10 µM | 10 to 30 µM | 2 to 10 µM | –
CO[C@@H]1C[C@H](C(=O)N(c2ccc(S(F)(F)(F)(F)F)cc2)C(C)(C(=O)NC2CCC(F)(F)CC2)c2cnccn2)N(C#N)C1 (single isomer, unassigned) [1299 Isomer 1] | 2 to 10 µM | < 2 µM | 2 to 10 µM | – | –
CO[C@@H]1C[C@H](C(=O)N(c2ccc(S(F)(F)(F)(F)F)cc2)C(C)(C(=O)NC2CCC(F)(F)CC2)c2cnccn2)N(C#N)C1 (single isomer, unassigned) [1299 Isomer 2] | – | – | < 2 µM | < 2 µM | < 2 µM
CO[C@@H]1C[C@H](C(=O)N(c2ccc(S(F)(F)(F)(F)F)cc2)C(C(=O)NC(C)C2CCCCN2C(=O)OC(C)(C)C)c2cccnc2)N(C#N)C1 (single isomer, unassigned) [1303 Isomer 1] | – | < 2 µM | 2 to 10 µM | 2 to 10 µM | –
CO[C@@H]1C[C@H](C(=O)N(c2ccc(S(F)(F)(F)(F)F)cc2)C(C(=O)NC(C)C2CCCCN2C(=O)OC(C)(C)C)c2cccnc2)N(C#N)C1 (single isomer, unassigned) [1303 Isomer 2.1] | – | 2 to 10 µM | 2 to 10 µM | 10 to 30 µM | –
CO[C@@H]1C[C@H](C(=O)N(c2ccc(S(F)(F)(F)(F)F)cc2)C(C(=O)NC(C)C2CCCCN2C(=O)OC(C)(C)C)c2cccnc2)N(C#N)C1 (single isomer, unassigned) [1303 Isomer 2.2] | – | < 2 µM | < 2 µM | < 2 µM | –
CO[C@@H]1C[C@H](C(=O)N(c2ccc(S(F)(F)(F)(F)F)cc2)C(C(=O)NC(C)C2CCCCN2C(=O)OC(C)(C)C)c2cccnc2)N(C#N)C1 (single isomer, unassigned) [1303 Isomer 2] | – | < 2 µM | < 2 µM | < 2 µM | –
CO[C@@H]1C[C@H](C(=O)N(c2ccc(S(F)(F)(F)(F)F)cc2)C(C(=O)NC(C)C2CCCCN2C(=O)OC(C)(C)C)c2cccnc2)N(C#N)C1 (single isomer, unassigned) [1303 Isomer 3.1] | – | < 2 µM | < 2 µM | < 2 µM | –
CO[C@@H]1C[C@H](C(=O)N(c2ccc(S(F)(F)(F)(F)F)cc2)C(C(=O)NC(C)C2CCCCN2C(=O)OC(C)(C)C)c2cccnc2)N(C#N)C1 (single isomer, unassigned) [1303 Isomer 3.2] | – | 10 to 30 µM | > 30 µM | > 30 µM | –
CO[C@@H]1C[C@H](C(=O)N(c2ccc(S(F)(F)(F)(F)F)cc2)C(C(=O)NC(C)C2CCCCN2C(=O)OC(C)(C)C)c2cccnc2)N(C#N)C1 (single isomer, unassigned) [1303 Isomer 3] | – | < 2 µM | < 2 µM | < 2 µM | –
Cc1nc[nH]c1C(C(=O)NC1CCC(F)(F)CC1)N(C(=O)[C@H]1C[C@@](C)(O)CN1C#N)c1ccc(S(F)(F)(F)(F)F)cc1 (single isomer, unassigned) [1324 Isomer 1] | – | 10 to 30 µM | > 30 µM | > 30 µM | –
Cc1nc[nH]c1C(C(=O)NC1CCC(F)(F)CC1)N(C(=O)[C@H]1C[C@@](C)(O)CN1C#N)c1ccc(S(F)(F)(F)(F)F)cc1 (single isomer, unassigned) [1324 Isomer 2] | – | – | 10 to 30 µM | 2 to 10 µM | 10 to 30 µM
C[C@H](NC(=O)C(c1cncc(F)c1)N(C(=O)[C@H]1C[C@@](C)(O)CN1C#N)c1ccc(S(F)(F)(F)(F)F)cc1)c1ccccc1 (single isomer, unassigned) [1328 Isomer 1] | < 2 µM | < 2 µM | < 2 µM | – | –
C[C@H](NC(=O)C(c1cncc(F)c1)N(C(=O)[C@H]1C[C@@](C)(O)CN1C#N)c1ccc(S(F)(F)(F)(F)F)cc1)c1ccccc1 (single isomer, unassigned) [1328 Isomer 2] | – | – | 2 to 10 µM | 2 to 10 µM | < 2 µM
